Experiments:
[1] = system: MCF-7; test: MTT assay, MCF-7 cells; type: cell-based, human; conditions: Homo sapiens, MCF7, 72 h of incubation, read-out: IC50 values ± SD, MCF-7
Description: (§1) The impact of acridine spiro derivatives 6–10 (Figure 13) on the metabolic activity of various tumor cell lines HCT-116 (human colorectal carcinoma), Jurkat (human leukemia cells), HeLa (human cervical adenocarcinoma), MDA-MB-231, and MCF-7 (human breast adenocarcinoma), and normal cell lines COS-7 (monkey kidney cells) and BJ-5ta (skin fibroblasts) was investigated using the MTT assay. This assay measures the conversion of yellow 3-(4,5-dimethylthiazol-2-yl)-2,5-diphenyltetrazolium bromide (MTT) to insoluble purple formazan by metabolically active cells. The antiproliferative activities of the tested compounds were determined based on the results from the MTT assay, and the inhibitory concentration values (IC50) are presented in Table 5.
(§2) The human cancer cell lines employed in this study were sourced from reputable institutions, including the American Type Culture Collection (ATCC; Manassas, VA, USA) and the European Collection of Authenticated Cell Cultures (ECACC, Salisbury, UK). Specifically, HeLa (93021013, human cervical adenocarcinoma), HCT116 (CCL-247TM, human colorectal carcinoma), and Jurkat (88042803, human leukemic T-cell lymphoma) were cultured in RPMI 1640 medium (Biosera, Kansas City, MO, USA). In contrast, MCF-7 (HTB-22TM, human breast adenocarcinoma, ER+), MDA-MB-231 (HTB-26TM, human breast adenocarcinoma, ER−), and COS-7 (CRL-1651TM, kidney fibroblasts) were nurtured in high-glucose Dulbecco’s Modified Eagle Medium (DMEM) supplemented with sodium pyruvate (Biosera). Furthermore, BJ-5ta (CRL-4001TM, human dermal fibroblasts) was cultured in a composite medium of high-glucose DMEM and M199 (4:1) (Biosera), supplemented with Hygromycin B (0.01 mg/mL; Merck, Darmstadt, Germany). All culture media were enriched with a 10% fetal bovine serum (FBS; Gibco, Thermo Scientific, Rockford, IL, USA) and an antibiotic/antimycotic solution (Merck) to ensure optimal growth conditions. The cells were meticulously maintained within a humidified environment containing 5% CO2 at 37 °C. Regular screenings for mycoplasma contamination were conducted using Hoechst 33342 staining (Merck), confirming the integrity of the cell lines.
(§3) To assess the antiproliferative impact of the synthesized compounds 6–10, their half-maximal inhibitory concentration (IC50) and the MTT colorimetric assay were employed. MDA-MB-231 and MCF-7 cells were seeded into 96-well microplates (SARSTEDT, Nümbrecht, Germany) at a density of 5 × 10^3 cells per well. After 24 h of cell seeding, various concentrations (100, 50, and 10 µmol/L) of acridine derivatives 6–10 were introduced, alongside cisplatin (utilized as a reference) at concentrations of 5, 10, 20, 50, and 100 µmol/L. Subsequent to 24, 48, and 72 h of treatment, the cells in each well underwent incubation with MTT (5 mg/mL, Sigma-Aldrich Chemie, Steinheim, Germany) for 4 h at 37 °C in the dark. During this period, mitochondrial oxidoreductases metabolized MTT, forming insoluble formazan. Following this, 100 µL of SDS (10% […]) was added to dissolve the formazan crystals, and the cells were incubated for an additional 12 h. Absorbance at 540 nm was measured using the automated Cytation™ 3 Cell Imaging Multi-Mode Reader (Biotek, Winooski, VT, USA). Each test was performed in triplicate, and three independent experiments were conducted to ensure precision and reliability.

[2] = system: Jurkat; test: MTT assay, Jurkat cells; type: cell-based, human; conditions: for IC50: Homo sapiens, Jurkat, MTT, 72 h of incubation, read-out: IC50 values ± SD, Jurkat
Description: as §1, §2, §3

[3] = system: BJ-5ta; test: MTT assay, BJ-5ta normal fibroblasts; type: cell-based, human; conditions: Homo sapiens, Fibroblast, 72 h of incubation, normal cell line, read-out: IC50 values ± SD, BJ-5ta
Description: as §1, §2, §3

[4] = system: primary brain endothelial cells; test: Endothelial cell viability assay (ATP, CellTiter-Glo); type: cell-based, rats; conditions: primary rat brain endothelial cells
Description: To comprehensively evaluate the cytotoxic effects of the investigated compounds 6c, 6e, and 8a, 8c, we conducted tests on primary endothelial cells. This additional assessment served multiple purposes in our study. Firstly, it aimed to assess the selectivity of these compounds, particularly in comparison to their effects on both tumor and normal cell lines. […] Secondly, by examining their impact on endothelial cells, we aimed to explore potential off-target effects, as endothelial cells are crucial components of blood vessels and play a pivotal role in angiogenesis—a process intricately linked to tumor growth. Lastly, these tests allowed for a broader safety assessment, beyond the scope of tumor and normal cell lines, providing insights into the compounds’ implications for vascular health and their regulatory role in angiogenesis.
Primary brain endothelial cells were isolated from rats (200–250 g, […]; n = 5 per isolation). Euthanasia was performed by CO2 exposure, followed by brain removal. The brainstem and cerebellum were dissected, and the white matter from the midbrain and choroid plexus was excised under sterile conditions. Cortical tissues were meticulously cleaned of meninges and homogenized on ice in a DMEM-F12 medium (PAA Laboratories GmbH, Cölbe, Germany) with 0.1% bovine serum albumin (BSA, Sigma-Aldrich, St. Louis, MO, USA). The homogenate was centrifuged at 800× g for 10 min at 4 °C. After aspirating the supernatant, the pellet was resuspended in a pre-warmed digestion mix containing 1 mg/mL collagenase/dispase (Roche Diagnostics, Indianapolis, IN, USA) and 10 μg/mL DNase I (Roche Diagnostics, Indianapolis, IN, USA). The homogenates were then incubated with the pre-prepared digestion mix at 37 °C for 30 min with gentle shaking. The preparation was centrifuged at 800× g for 10 min at 4 °C, and the pellets were resuspended in 20% BSA in the medium. The tissues were centrifuged at 1500× g for 15 min at 4 °C to obtain a pellet containing microvessels with a fraction of myelin and BSA on top, which was centrifuged again. The microvessels were pooled and resuspended in a pre-warmed digestion mix and incubated for 15 min at 37 °C. The pellet was then centrifuged at 800× g for 10 min at 4 °C and washed with a serum-containing DMEM-F12 culture medium. […] The endothelial cells were ready to use after 7 days.
The endothelial cell viability was assessed through the quantification of adenosine triphosphate (ATP) released from the cells, utilizing the ATP assay as per the manufacturer’s instructions (The Promega CellTiter-Glo™ Luminescent Cell Viability Assay Kit, Madison, WI, USA). […]

[5] = system: MDA-MB-231; test: MTT assay, MDA-MB-231 cells; type: cell-based, human; conditions: Homo sapiens, MDA-MB-231, 72 h of incubation, read-out: IC50 values ± SD, MDA-MB-231
Description: as §1, §2, §3

[6] = system: HCT-116; test: MTT assay, HCT-116 cells; type: cell-based, human; conditions: for IC50: Homo sapiens, HCT-116, MTT, 72 h of incubation, read-out: IC50 values ± SD, HCT-116
Description: as §1, §2, §3

[7] = system: COS-7; test: MTT assay, COS-7 normal cells; type: cell-based, monkey; conditions: Primates, COS-7, 72 h of incubation, normal cell line, read-out: IC50 values ± SD, COS-7
Description: as §1, §2, §3

[8] = system: HeLa; test: MTT assay, HeLa cells; type: cell-based, human; conditions: Homo sapiens, HeLa, 72 h of incubation, read-out: IC50 values ± SD, HeLa
Description: as §1, §2, §3

Row | IC50 [1] [µM] | IC50 [2] [µM] | IC50 [5] [µM] | IC50 [6] [µM] | melting point | IC50 [8] [µM] | SMILES | IC50 [3] [µM] | IC50 [4] [µM] | IC50 [7] [µM] | selectivity index, Jurkat compared to non-tumor cells COS-7 and BJ-5ta ([2]; ratio of IC50 values) | selectivity index, HCT-116 compared to non-tumor cells COS-7 and BJ-5ta ([6]; ratio of IC50 values)
1 | 7.75 ± 0.41 | 5.67 ± 0.03 | 7.98 ± 0.93 | 5.44 ± 0.05 | 239 to 243 °C (dec.) | 5.83 ± 0.03 | CCOC(=O)/C=C1\S/C(=N\N2C(=O)C(C#N)=CC23c2ccccc2Nc2ccccc23)N(c2cccc(OC)c2)C1=O [8c, Ethyl 2-[(2Z,5Z)-2-({4′-cyano-5′-oxo-1′,5′-dihydro-10H-spiro[acridine-9,2′-pyrrol]-1′-yl}imino)-3-(3-methoxyphenyl)-4-oxo-1,3-thiazolidin-5-ylidene]acetate] | 7.18 ± 0.19 | 20 | 8.95 ± 0.08 | – | –
2 | 34.2 ± 5.01 | 6.47 ± 0.27 | 47.2 ± 1.17 | 7 ± 0.22 | 184 to 186 °C (dec.) | 41.1 ± 1.91 | COc1cccc(NC(=S)NN2C(=O)C(C#N)=CC23c2ccccc2Nc2ccccc23)c1 [6c, 3-{4′-Cyano-5′-oxo-1′,5′-dihydro-10H-spiro[acridine-9,2′-pyrrol]-1′-yl}-1-(3-methoxyphenyl)thiourea] | 73.2 ± 2.41 | 39 | 83.4 ± 4.79 | exceeding 10 | exceeding 10
3 | 39.7 ± 0.58 | 7.82 ± 0.31 | 78.8 ± 4.87 | 19.6 ± 1.07 | 175 to 179 °C (dec.) | 52.1 ± 2.99 | N#CC1=CC2(c3ccccc3Nc3ccccc32)N(NC(=S)Nc2ccc([N+](=O)[O-])cc2)C1=O [6e, 3-{4′-Cyano-5′-oxo-1′,5′-dihydro-10H-spiro[acridine-9,2′-pyrrol]-1′-yl}-1-(4-nitrophenyl)thiourea] | 71.1 ± 2.62 | 45 | 87.1 ± 5.82 | – | –
4 | 7.9 ± 0.49 | 5.67 ± 0.06 | 7.85 ± 0.69 | 5.46 ± 0.04 | 256 to 259 °C (dec.) | 5.77 | CCOC(=O)/C=C1\S/C(=N\N2C(=O)C(C#N)=CC23c2ccccc2Nc2ccccc23)N(c2ccccc2)C1=O [8a, Ethyl 2-[(2Z,5Z)-2-({4′-cyano-5′-oxo-1′,5′-dihydro-10H-spiro[acridine-9,2′-pyrrol]-1′-yl}imino)-4-oxo-3-phenyl-1,3-thiazolidin-5-ylidene]acetate] | 7.25 ± 0.41 | 5 | 9.15 ± 0.12 | – | –
5 | > 100 | > 100 | > 100 | > 100 | 230 to 232 °C (dec.) | > 100 | CCCC1S/C(=N\N2C(=O)C(C#N)=CC23c2ccccc2Nc2ccccc23)N(c2ccc(F)cc2)C1=O (stereo not drawn) [10d, 1′-{[(2Z)-3-(4-Fluorophenyl)-4-oxo-5-propyl-1,3-thiazolidin-2-ylidene]amino}-5′-oxo-1′,5′-dihydro-10H-spiro[acridine-9,2′-pyrrole]-4′-carbonitrile] | > 100 | – | > 100 | – | –
6 | > 100 | 35.5 ± 2.31 | > 100 | 46.2 ± 2.02 | 244 to 247 °C (dec.) | > 100 | N#CC1=CC2(c3ccccc3Nc3ccccc32)N(/N=C2\SCC(=O)N2c2ccc([N+](=O)[O-])cc2)C1=O [7e, 1′-{[(2Z)-3-(4-Nitrophenyl)-4-oxo-1,3-thiazolidin-2-ylidene]amino}-5′-oxo-1′,5′-dihydro-10H-spiro[acridine-9,2′-pyrrole]-4′-carbonitrile] | > 100 | – | > 100 | – | –

Source: paper PMC10537105, “Derivatives Incorporating Acridine, Pyrrole, and Thiazolidine Rings as Promising Antitumor Agents” (Molecules, 2023)
